How the values were obtained:
CT26 MSH2-/- MMRd cells = experiment: viability assay of MMR-deficient MSH2 KO CT26 cells; type: cell-based, mouse; conditions: MSH2 KO cells compared with parental CT26
CT26 colon cancer cells = experiment: pre-treated CT26 cells implanted in mice randomized to anti PD-1 or IgG isotype control; type: in vivo, mouse
Text: FIGS. 4A-B. Treatment of colon cancer cells with TMZ and cisplatin induces a high frameshift load leading to the spontaneous immuno-rejection of tumors in a preclinical mouse model. FIG. 4A. […] Treatment with either anti PD-1 or the IgG isotype control was commenced when the tumors reached a volume of 200 mm^3. […] The MSH2 KO cell line was used as a positive control for PD-1 blockade. FIG. 4B. Tumors were subjected to whole exome sequencing at 250x and immunoediting was studied by comparing mutation losses before and after engraftment.
Experiments were performed to examine the effect of PD-1 blockade on the growth of tumors generated following injection of mice with tumor cells that had been pre-treated with either a vehicle control, TMZ alone, cisplatin alone, or TMZ/CDDP combination. 1 million cells from control or treatment groups (pre-treated for 8 weeks) were implanted subcutaneously into mice (n=10) and mice were then randomly assigned to either an anti PD-1 treatment group (treated with anti PD-1 at 6 mg/kg twice weekly when tumor reached 200 mm^3) or an IgG isotype control group. CT26 MSH2 KO cells were used as a positive control (FIG. 4). […] For tumors generated following injection of cells pre-treated with the combination of both temozolomide and cisplatin, out of 10 implanted tumors only one was not rejected (9 out of 10 were rejected). […]

[1] = test system: CT26 colon cancer cell line
Protocol: CT26 cells were treated for 8 weeks by low dose TMZ, CDDP or TMZ/CDDP combination (drugs were removed one week before the experiment).

With [NH2][Pt]([NH2])([Cl])[Cl] [CDDP, cisplatin] the cytotoxicity (CT26 MSH2-/- MMRd cells) was “Higher activity”, the “effect of PD-1 blockade compared with isotype control on tumors from pre-treated cells” value (CT26 colon cancer cells; anti PD-1 6 mg/kg twice weekly from 200 mm^3) was “no effect of PD-1 blockade” and the “tumor growth compared to control” value (CT26 colon cancer cells; cells pre-treated 8 weeks, 1 week wash out) was “no significant difference in tumor growth compared to control”. For the same compound, the “sensitivity of CT26 cells to single agent” value [1] was “sensitive”.

From US20230056846A1, “METHODS AND COMPOSITIONS FOR CANCER IMMUNOTHERAPY” (MEMORIAL SLOAN KETTERING CANCER CENTER, priority 2020, published 2023)
